Reference: patent US20050090520A1 (priority 2003, published 2005)
Where two headings read alike, the source gives them in different places.

Legend:
[1] = tested on: adult neural stem cells (NSCs); assay: Intracellular ATP proliferation assay; assay type: cell-based, mouse; settings: for Increase in intracellular ATP levels: 10 nM, 3 days
Procedure: (§1) The anterior lateral wall of the lateral ventricle of 5-6 week old mice was enzymatically dissociated at 37° C. for 20 min in 0.8 mg/ml hyaluronidase and 0.5 mg/ml trypsin in DMEM containing 4.5 mg/ml glucose and 80 units/ml DNase. The cells were gently triturated and mixed with three volumes of Neurosphere medium (DMEM/F12, B27 supplement, 125 mM HEPES Ph 7.4) containing 20 ng/ml EGF (unless otherwise stated), 100 units/ml penicillin, and 100 μg/ml streptomycin. After passing through a 70 μm strainer, the cells were pelleted at 160×g for 5 min. The supernatant was subsequently removed and the cells resuspended in Neurosphere medium supplemented as above, plated out in culture dishes and incubated at 37° C. Neurosphere cultures were ready to be split approximately 7 days after plating.
To split the neurosphere cultures, neurospheres were collected by centrifugation at 160×g for 5 min. The conditioned supernatant (conditioned medium) was removed and saved. The neurospheres were resuspended in 0.5 ml Trypsin/EDTA in HBSS (1×), incubated at 37° C. for 2 min, and triturated gently to aid dissociation. Following a further 3 min incubation at 37° C. and trituration, 3 volumes of ice cold NSPH-media-EGF were added to stop further trypsin activity. The cells were pelleted at 220×g for 4 min, and resuspended in a 1:1 mixture of fresh Neurosphere medium and conditioned medium. EGF was supplemented to 20 ng/ml and the culture plated out and incubated at 37° C.
(§2) The adherent cells were seeded at a density of 30,000 cells/well on poly-D-lysine in DMEM/F12 supplemented with 1% fetal calf serum (FCS).
The following experiment was performed in sets of four parallel experiments (i.e., performed in quadruplicate) so that the cells could be used for different assays. […] Cells were lysed with 0.1% Triton-X100 in Tris-EDTA buffer. Intracellular ATP was measured using an ATP-SL kit according to the manufacturer's instructions (BioThema, Sweden). […] For each experiment, wells were visually examined for signs of neurogenesis and counted to confirm the results of the assay. Results were repeatable and statistically significant.

[2] = tested on: adult neural stem cells (NSCs); assay: BrdU incorporation proliferation assay; assay type: cell-based, mouse; settings: 10 nM
Procedure: as §1
To split the neurosphere cultures, neurospheres were collected by centrifugation at 160×g for 5 min. The conditioned supernatant (conditioned medium) was removed and saved. The neurospheres were resuspended in 0.5 ml Trypsin/EDTA in HBSS (1×), incubated at 37° C. for 2 min, and triturated gently to aid dissociation. […]
DNA synthesis is commonly used to measure cell proliferation. […] After incorporation if the pyrimidine analogue into DNA, BrdU was detected by immunoassay. […]

[3] = tested on: adult neural stem cells (NSCs); assay: Lactate dehydrogenase (LDH) cell death assay; assay type: cell-based, mouse; settings: 3 days
Procedure: as §2
The death of cells that occurred during the 3 days was measured as leakage of lactate dehydrogenase (LDH) into the medium. […] The proportion of LDH in the medium to total LDH (medium+cells) gives the percentage of cell death. Treated and untreated cells can thus be compared to rule out apoptosis as the cause for the different results observed in the ATP proliferation assay. The amount of LDH was measured according to the instructions of the manufacturer, Promega, USA (see, also, Chen, et al., 2004).

S1P2 = S1P2 (Homo sapiens, UniProt O95136); settings: Mandala et al., 2002; CHO cell membranes; read-out: Binding (IC50) S1P2; cited from earlier work
Sequence of S1P2 (O95136 whole entry, species assumed): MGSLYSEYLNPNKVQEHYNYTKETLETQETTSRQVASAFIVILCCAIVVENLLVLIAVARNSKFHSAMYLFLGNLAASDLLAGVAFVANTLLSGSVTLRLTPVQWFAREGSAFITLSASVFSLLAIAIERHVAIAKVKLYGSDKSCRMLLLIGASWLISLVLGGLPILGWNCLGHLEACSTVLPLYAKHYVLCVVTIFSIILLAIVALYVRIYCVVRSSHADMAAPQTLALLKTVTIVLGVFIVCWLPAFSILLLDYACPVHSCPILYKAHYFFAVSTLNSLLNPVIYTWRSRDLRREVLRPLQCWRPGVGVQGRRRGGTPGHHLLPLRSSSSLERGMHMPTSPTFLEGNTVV

S1P3 = S1P3 (Homo sapiens, UniProt Q99500); settings: Mandala et al., 2002; CHO cell membranes; read-out: Binding (IC50) S1P3; cited from earlier work
Sequence of S1P3 (Q99500 whole entry, species assumed): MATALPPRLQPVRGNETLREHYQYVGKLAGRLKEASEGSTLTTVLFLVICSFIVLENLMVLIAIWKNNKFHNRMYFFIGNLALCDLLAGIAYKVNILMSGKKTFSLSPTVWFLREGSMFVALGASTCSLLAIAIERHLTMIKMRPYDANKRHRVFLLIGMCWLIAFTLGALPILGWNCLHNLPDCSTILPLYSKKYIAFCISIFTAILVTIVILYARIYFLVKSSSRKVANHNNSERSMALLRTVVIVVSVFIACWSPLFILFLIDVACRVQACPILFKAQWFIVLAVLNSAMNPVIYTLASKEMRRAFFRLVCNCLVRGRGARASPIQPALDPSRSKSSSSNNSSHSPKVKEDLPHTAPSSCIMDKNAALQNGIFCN

S1P4 [4] = biological target: T1, S1P4 (Homo sapiens, UniProt O95977); settings: Mandala et al., 2002; CHO cell membranes; read-out: Binding (IC50) S1P4; cited from earlier work
T1 sequence (O95977 1-384): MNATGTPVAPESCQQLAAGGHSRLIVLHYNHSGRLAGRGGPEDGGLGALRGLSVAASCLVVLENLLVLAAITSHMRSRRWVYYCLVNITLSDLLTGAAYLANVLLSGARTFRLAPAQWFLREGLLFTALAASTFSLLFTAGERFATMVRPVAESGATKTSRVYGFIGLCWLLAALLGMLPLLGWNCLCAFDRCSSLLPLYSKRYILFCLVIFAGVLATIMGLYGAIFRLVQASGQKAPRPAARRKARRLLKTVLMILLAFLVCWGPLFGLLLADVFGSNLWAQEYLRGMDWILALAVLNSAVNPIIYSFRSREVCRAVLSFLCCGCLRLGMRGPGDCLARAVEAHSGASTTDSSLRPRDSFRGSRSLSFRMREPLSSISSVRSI

S1P5 = S1P5 (Homo sapiens, UniProt Q9H228); settings: Mandala et al., 2002; CHO cell membranes; read-out: Binding (IC50) S1P5; cited from earlier work
Sequence of S1P5 (Q9H228 whole entry, species assumed): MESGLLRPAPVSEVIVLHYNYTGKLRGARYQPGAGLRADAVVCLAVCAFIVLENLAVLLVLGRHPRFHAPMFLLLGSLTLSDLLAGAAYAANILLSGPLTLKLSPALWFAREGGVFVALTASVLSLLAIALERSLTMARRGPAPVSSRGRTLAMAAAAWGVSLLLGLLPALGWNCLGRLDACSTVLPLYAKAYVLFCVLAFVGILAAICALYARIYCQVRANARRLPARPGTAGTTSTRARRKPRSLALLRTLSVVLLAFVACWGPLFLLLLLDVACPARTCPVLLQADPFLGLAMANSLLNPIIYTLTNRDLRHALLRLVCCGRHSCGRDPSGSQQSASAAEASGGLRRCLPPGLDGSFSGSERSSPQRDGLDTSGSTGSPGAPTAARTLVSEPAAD

[5] = rats, cited from earlier work
[6] = dogs; cited from earlier work
[7] = monkeys; cited from earlier work
[8] = renal transplant patients, single oral dose 0.25-3 mg, whole blood, 96 hours; cited from earlier work
CYP4F3 = biological target: T2, CYP4F3 (Homo sapiens, UniProt Q08477); settings: cited from earlier work
T2 sequence (Q08477 1-520): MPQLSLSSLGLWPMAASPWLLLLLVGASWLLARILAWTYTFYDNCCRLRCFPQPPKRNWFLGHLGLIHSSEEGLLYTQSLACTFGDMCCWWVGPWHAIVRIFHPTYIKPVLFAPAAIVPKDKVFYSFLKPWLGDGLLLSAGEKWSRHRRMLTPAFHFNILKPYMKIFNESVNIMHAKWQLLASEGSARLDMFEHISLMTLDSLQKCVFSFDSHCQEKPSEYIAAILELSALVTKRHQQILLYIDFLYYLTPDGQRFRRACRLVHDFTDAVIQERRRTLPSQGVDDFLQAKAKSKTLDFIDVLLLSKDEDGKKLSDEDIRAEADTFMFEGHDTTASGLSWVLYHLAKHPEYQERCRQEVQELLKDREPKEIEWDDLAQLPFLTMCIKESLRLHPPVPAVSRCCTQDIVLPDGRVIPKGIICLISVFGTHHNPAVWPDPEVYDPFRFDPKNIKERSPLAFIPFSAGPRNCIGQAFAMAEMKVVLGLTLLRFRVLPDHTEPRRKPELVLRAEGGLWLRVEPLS

[9] = rat models; IDDB; cited from earlier work
[10] = dog models, dosages below 200 mg/kg; IDDB; cited from earlier work
[11] = primates, 3 mg/kg; IDDB; cited from earlier work
[12] = cited from earlier work
S1P4 [13] = biological target: T1, S1P4; settings: read-out: Potency (EC50) S1P4, cited from earlier work

## CCCCCCCCc1ccc(CCC(N)(CO)CO)cc1 [FTY720, 2-amino-2-[2-(4-octylphenyl)ethyl]-1,3-propanediol]
[1]; FIG. 2
  Concentration of maximum proliferation effect: 0.04 nM
[1]; Mus musculus, Neural stem cell, dose-response curve, FIG. 2, read-out: EC50 of in vitro proliferation of NSCs (ATP assay)
  EC50: 0.02 nM
[1]; adherent cells
  Increase in intracellular ATP levels: 42%
[1]; suspension cells
  Increase in intracellular ATP levels: 25%
[2]; adherent cells
  Increase in BrdU incorporation: 271%
[2]; suspension cells
  Increase in BrdU incorporation: 52%
[3]
  Change in LDH levels between control and treated cells: No significant change
S1P2
  IC50: > 10000 nM
S1P3
  IC50: > 10000 nM
S1P4 [4]
  IC50: > 5000 nM
S1P5
  IC50: 2620 nM
[5]; single oral dose 0.1 mg/kg
  T1/2: 18.1 h
[5]; single oral dose 1 mg/kg
  T1/2: 21.6 h
[5]
  Oral bioavailability: 80%
[6]
  Oral bioavailability: 60%
[7]
  Oral bioavailability: 40%
[8]
  Absorption: slowly absorbed
  Cmax and AUC versus dose: proportional to the dose
CYP4F3
  Metabolic route: metabolized primarily by CYP4F3 to the corresponding carboxylic acid
[9]
  LD50: 300 to 600 mg/kg
[10]
  Deaths: no deaths were observed
[11]
  Toxicity: no observed toxicity
[12]; PI renal transplant patients, 0.25-3.5 mg single dose
  Adverse events: no serious adverse events
[12]; orally administered for immunosuppression
  Only observed side effect: mild and transient bradycardia

## CCCCCCCCc1ccc(CCC(N)(CO)COP(=O)(O)O)cc1 (racemic) [FTY720P]
S1P4 [13]; Brinkmann et al., 2002
  EC50: 7.2 nM
S1P4 [13]; Novartis data
  EC50: 43 nM
S1P4 [4]
  IC50: 5.9 nM
